Measured values as given in patent US11584744B2 (UNIVERSITY OF WASHINGTON, priority 2017, dated 2023).
≈ marks a conversion by molar mass, not a printed value. Where two headings read alike, the source gives them in different places. Marks after values point to notes of the source that are not given here.

What was measured:
[1] = test system: E. faecium VRE (ATCC 51559); test: MIC susceptibility testing; type: cell-based, Enterococcus faecium; conditions: Enterococcus faecium, read-out: E. faecium VRE (ATCC 51559) MIC
Method in brief: (§1)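 CLSI broth microdilution in triplicate, 5×10^5 CFU/mL final, ≤0.5% DMSO; MHB for S. aureus, CA-MHB for E. coli and E. faecium, CA-MHB plus 3% laked horse blood for S. pyogenes (5% CO2).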

S. aureus (ATCC 29213) = test: MBC determinations (with MIC); type: cell-based; conditions: Staphylococcus aureus, ATCC29213
Procedure: Maximum DMSO concentrations were 0.5%. […] Each experiment's inoculum was serially diluted and plated on TSA to count competent cells. Cultures were incubated at 37° C. for at least 20 h and plated on TSA for CFU determination.
MIC/MBC: Measurements of minimum bactericidal concentrations (MBCs) were done with the S. aureus strain ATCC 29213 (Table 5).

[2] = molecular target: recombinant S. aureus MetRS enzyme (Staphylococcus aureus, UniProt A0A0H2XID2); test: Inhibition of SaMetRS, ATP depletion assay; type: biochemical; conditions: recombinant enzyme; lower limit of detection 0.025 μM; read-out: MetRS S. aureus (enzyme) IC50
Method in brief: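 N-terminal 6-His S. aureus MetRS (25 nM) was pre-incubated 15 min at room temperature with compound, 400 μg/mL E. coli tRNA and pyrophosphatase in HEPES-KOH pH 7.9, 2% DMSO. Reaction started with 150 nM ATP plus 20 μM L-methionine, ran 120 min; remaining ATP read by Kinase-Glo luminescence, IC50 by sigmoidal nonlinear regression.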

S. aureus = test: Serum shift assays (MIC with and without 50% human serum); type: cell-based, Staphylococcus aureus; conditions: for MIC: Staphylococcus aureus
Procedure: Serum shift assays: To assess the role of protein binding on compound susceptibility, MIC determinations were performed in triplicate in the presence and absence of 50% human serum. Serial threefold dilutions of 2× compound were generated in MHB and aliquoted onto 96 well plates with a DMSO limit of 0.5%. Bacteria were adjusted to 1*10^8 CFUs/mL in MHB, then further diluted 1:100 in MHB and 100% heat deactivated filter sterilized pooled human serum. Fifty microliters were added to each well of the corresponding plates, and the plates were incubated at 37° C. for ˜20 h. The lowest concentration causing ≥90% growth inhibition was recorded as the MIC.

[3] = test system: S. aureus MSSA (ATCC 29213); test: MIC susceptibility testing; type: cell-based, Staphylococcus aureus; conditions: Staphylococcus aureus, 18 h, read-out: S. aureus MSSA (ATCC 29213) MIC
[4] = test system: S. aureus MRSA (ATCC 33591); test: MIC susceptibility testing; type: cell-based, Staphylococcus aureus; conditions: Staphylococcus aureus, read-out: S. aureus MRSA (ATCC 33591) MIC
Method in brief: as §1

[5] = test system: S. aureus VISA (ATCC 700699); test: MIC susceptibility testing; type: cell-based; conditions: Staphylococcus aureus, read-out: S. aureus VISA (ATCC 700699) MIC
Method in brief: as §1

[6] = test system: S. pneumoniae (ATCC 49619); test: MIC susceptibility testing; type: cell-based; conditions: Streptococcus pneumoniae, ATCC49619, 18 h, read-out: S. pneumoniae (ATCC 49619) MIC
S. pyogenes (ATCC 19615) = test: MIC susceptibility testing; type: cell-based; conditions: Streptococcus pyogenes, ATCC19615, 18 h, read-out: S. pyogenes (ATCC 19615) MIC
[7] = test system: S. epidermidis (ATCC 49134); test: MIC susceptibility testing; type: cell-based; conditions: Staphylococcus epidermidis, ATCC49134, read-out: S. epidermidis (ATCC 49134) MIC
E. faecalis (ATCC 29212) = test: MIC susceptibility testing; type: cell-based; conditions: Enterococcus faecalis, ATCC29212, read-out: E. faecalis (ATCC 29212) MIC
[8] = test system: S. aureus MSSA (ATCC 19636); test: MIC susceptibility testing; type: cell-based; conditions: Staphylococcus aureus, read-out: S. aureus MSSA (ATCC 19636) MIC
Method in brief: as §1

E. faecium (ATCC 19434) = test: MIC susceptibility testing; type: cell-based; conditions: Enterococcus faecium, ATCC19434, read-out: E. faecium (ATCC 19434) MIC
Method in brief: as §1

[9] = test system: S. epidermidis (ATCC 12228); test: MIC susceptibility testing; type: cell-based; conditions: Staphylococcus epidermidis, ATCC12228, read-out: S. epidermidis (ATCC 12228) MIC
[10] = test system: S. aureus MRSA (ATCC 43300); test: MIC susceptibility testing; type: cell-based; conditions: Staphylococcus aureus, read-out: S. aureus MRSA (ATCC 43300) MIC
Method in brief: as §1

[11] = value printed with (49), probably a literature reference; cited from earlier work
[12] = Data from Drugbank; cited from earlier work
[13] = Cytotoxicity testing on mammalian cells (AlamarBlue, 48 hours); type: cell-based; conditions: human
Procedure: Cytotoxicity testing on mammalian cells: Compounds were assayed for cytotoxicity against CRL-8155 (human lymphoblasts) and HepG2 cells (human hepatocellular carcinoma). Cells were exposed to serial dilutions of compounds for 48 hours and toxicity was quantified using AlamarBlue (ThermoFisher Scientific, Waltham, Mass.). Assays were performed in quadruplicate and EC50 values were calculated with non-linear regression methods using software by the Collaborative Drug Database (Burlingame, Calif. www.collaborativedrug.com)

recombinant S. aureus MetRS enzyme, sequence (A0A0H2XID2 2-657): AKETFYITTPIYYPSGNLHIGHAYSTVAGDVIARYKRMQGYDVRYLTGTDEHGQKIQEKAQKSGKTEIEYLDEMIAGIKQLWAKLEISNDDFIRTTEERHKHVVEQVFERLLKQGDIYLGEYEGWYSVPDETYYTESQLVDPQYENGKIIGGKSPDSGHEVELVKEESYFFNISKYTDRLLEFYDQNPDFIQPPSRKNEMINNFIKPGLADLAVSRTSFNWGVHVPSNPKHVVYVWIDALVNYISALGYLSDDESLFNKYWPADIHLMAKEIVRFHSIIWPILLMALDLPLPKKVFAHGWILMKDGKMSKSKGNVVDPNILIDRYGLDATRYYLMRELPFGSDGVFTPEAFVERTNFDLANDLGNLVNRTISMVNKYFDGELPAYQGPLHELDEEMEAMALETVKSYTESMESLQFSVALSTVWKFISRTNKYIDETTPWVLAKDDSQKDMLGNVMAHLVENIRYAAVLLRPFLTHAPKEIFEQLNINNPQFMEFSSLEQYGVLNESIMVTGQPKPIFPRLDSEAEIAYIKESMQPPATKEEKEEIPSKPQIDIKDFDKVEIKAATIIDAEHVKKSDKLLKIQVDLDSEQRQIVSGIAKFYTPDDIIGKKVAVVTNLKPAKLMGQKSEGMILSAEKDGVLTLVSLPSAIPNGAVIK

SMILES: CN[C@H](CC(C)C)C(=O)N[C@H]1C(=O)N[C@@H](CC(N)=O)C(=O)N[C@H]2C(=O)N[C@H]3C(=O)N[C@H](C(=O)N[C@H](C(=O)O)c4cc(O)cc(O)c4-c4cc3ccc4O)[C@H](O)c3ccc(c(Cl)c3)Oc3cc2cc(c3O[C@@H]2O[C@H](CO)[C@@H](O)[C@H](O)[C@H]2O[C@H]2C[C@](C)(N)[C@H](O)[C@H](C)O2)Oc2ccc(cc2Cl)[C@H]1O [VAN, vancomycin]
- MIC [1]: > 10 µg/mL
- MBC (S. aureus (ATCC 29213)): 5 µg/mL (≈ 3.45 µM)
- MIC (S. aureus (ATCC 29213)): 1.25 µg/mL (≈ 0.863 µM)
- IC50 [2]: > 10 µM
- Avg MIC ± SEM (+50% serum) (S. aureus; 50% human serum): 1.213 ± 0.12 µg/mL
- MIC (S. aureus; read-out: Avg MIC ± SEM (+50% serum), 50% human serum): 1.21 µg/mL
- MIC (S. aureus; read-out: Avg MIC ± SEM (no serum), no serum): 0.714 ± 0.05 µg/mL
- MIC [3]: 1.25 µg/mL (≈ 0.863 µM)
- MIC [4]: 1.25 µg/mL (≈ 0.863 µM)
- MIC [5]: 10 µg/mL (≈ 6.9 µM)
- MIC [6]: 0.313 µg/mL (≈ 0.216 µM)
- MIC (S. pyogenes (ATCC 19615)): 0.625 µg/mL (≈ 0.431 µM)
- MIC [7]: 2.5 µg/mL (≈ 1.73 µM)
- MIC (E. faecalis (ATCC 29212)): 5 µg/mL (≈ 3.45 µM)
- MIC [8]: 1.25 µg/mL (≈ 0.863 µM)
- MIC (E. faecium (ATCC 19434)): 0.625 µg/mL (≈ 0.431 µM)
- MIC [9]: 2.5 µg/mL (≈ 1.73 µM)
- MIC [10]: 1.25 µg/mL (≈ 0.863 µM)
- % binding to mouse plasma [11]: 25 (49) %
- % binding to human plasma [12]: 55* %
- CC50 at 48 h ([13]; CRL-8155 cells (human lymphoblasts), read-out: Mamm. cells (CRL8155) CC50): > 145 µg/mL
- CC50 at 48 h ([13]; HepG2 cells (human hepatocellular carcinoma), read-out: Mamm. cells (HepG2) CC50): > 145 µg/mL
